Laboratory results published in the NIST ThermoML archive (doi:10.1021/je0600092).
Numbers after ± are expanded uncertainties.

Conditions: 101.33 kPa, Liquid; for speed of sound: Light diffraction method; for thermal diffusivity: Optical interferometry

Compound | speed of sound (293.15 K) | thermal diffusivity (293.15 K) | speed of sound (298.15 K) | thermal diffusivity (298.15 K)
CCCCn1cc[n+](C)c1.F[B-](F)(F)F [1-butyl-3-methylimidazolium tetrafluoroborate] | 1564 ± 10 m/s | 8.6e-08 ± 4e-09 m2/s | – | –
CCn1cc[n+](C)c1.O=S(=O)([N-]S(=O)(=O)C(F)(F)F)C(F)(F)F | 1240 ± 10 m/s | 6.01e-08 ± 2.9e-09 m2/s | – | –
CCCCn1cc[n+](C)c1.F[P-](F)(F)(F)(F)F [1-butyl-3-methylimidazolium hexafluorophosphate] | 1441 ± 11 m/s | 7.5e-08 ± 5e-09 m2/s | – | –
CCCCCn1cc[n+](C)c1.O=S(=O)([N-]S(=O)(=O)C(F)(F)F)C(F)(F)F | – | – | 1227 ± 7 m/s | 5.8e-08 ± 3e-09 m2/s
CCCC[n+]1ccn(C)c1.O=S(=O)([N-]S(=O)(=O)C(F)(F)F)C(F)(F)F | 1227 ± 13 m/s | 6e-08 ± 3e-09 m2/s | – | –
CCCCCC[n+]1ccn(C)c1.O=S(=O)([N-]S(=O)(=O)C(F)(F)F)C(F)(F)F | 1232 ± 11 m/s | 6.06e-08 ± 3.2e-09 m2/s | – | –
CCCCCCCCn1cc[n+](C)c1.O=S(=O)([N-]S(=O)(=O)C(F)(F)F)C(F)(F)F | 1232 ± 11 m/s | 6.1e-08 ± 5e-09 m2/s | – | –
